Measurements as given in patent US6531289B1, “Regulated gene expression in yeast and method of use” (Anadys Pharmaceuticals, Inc., priority 1997, dated 2003).

Key:
ZMY60 = conditions: ZMY60, after 16 hours of growth
Procedure: (§1) For assaying the effects of copper ions on recombinant yeast strains, wild type and recombinant strains are grown in 5 ml of CSM media on a roller drum incubation apparatus at 30° C. for 18 to 20 hours. Cultures are diluted to an A600(absorbance of light at 600 nm) of about 0.02 in 5 ml CSM media without or with various concentrations of CuSO4 (10 μM, 50 μM, 100 μM, 250 μM, 1 mM and 2 mM) for 18 to 20 hours. The A600 of the various samples is read and recorded.
(§2) The copper sensitivity of yeast strain CTY145 was compared with that of ZMY60 by growing each strain in the presence of increasing amounts of added copper and measuring cell number at increasing times.

CTY145 = conditions: CTY145, after 16 hours of growth
Procedure: as §1, §2

ALG7 = conditions: Kukuruzinska et al. 1995; cited from earlier work
[1] = test system: ALG7/alg7 heterozygous diploid S. cerevisiae strain; conditions: Giaever et al.; cited from earlier work
[2] = test system: copper regulated ALG7 strain; assay: Drug sensitivity profiling, 96 well copper sulfate x compound dilution plate; assay type: cell-based, S. cerevisiae; conditions: ALG7 copper regulated cells, 48 hours at 37° C., growth scored by eye
Procedure: (§3) In one embodiment, such drug sensitivity is analyzed utilizing the copper regulated strains of the invention according to the following non-limiting method. In a single 96 well assay plate, a serial dilution of copper sulfate is created from right to left. On the same plate a serial dilution of compound is created along the opposite axis to give the final compound and copper concentrations shown in FIG. 12. Each well is inoculated with 10^3 cells ml^−1. Growth is scored by eye after 48 hours incubation at 37° C. As the copper concentration is increased, the level of target expressed is reduced. Consequently, inhibition of growth should occur at a lower compound concentration (FIG. 13, panel a). […] (FIG. 13, panel c).
(§4) In a single 96 well assay plate, a serial dilution of copper sulfate was created from right to left. On the same plate a serial dilution of compound was created along the opposite axis to give the final compound and copper concentrations. Each well was inoculated with 10^3 cells/mL. Yeast cell growth was scored by eye after 48 hours incubation at 37° C.
(§5) Plates were setup as described above and inoculated with wild-type, copper regulated ALG7 and copper regulated CHS3 strains. CHS3 encodes chitin synthase and provides a second control. Following 48 hours incubation at 37° C., plates were examined to assess growth (FIG. 16).

wild-type strain = assay: as above; assay type: cell-based, S. cerevisiae; conditions: wild type control, 48 hours at 37° C.
Procedure: as §3, §4, §5

[3] = test system: copper regulated CHS3 strain; assay: as above; assay type: cell-based, S. cerevisiae; conditions: CHS3 copper regulated control, 48 hours at 37° C.
Procedure: as §3, §4, §5

| Molecule | highest concentration of copper at which the log-phase growth rate was maintained unaffected (ZMY60) | highest concentration of copper at which the growth rate was maintained (CTY145) | sensitivity to tunicamycin on downregulation of ALG7 expression (ALG7) | sensitivity of ALG7/alg7 heterozygous diploid strain [1] | sensitivity to compound as the copper concentration was increased [2] | sensitivity to compound as the copper concentration was increased (wild-type strain) | sensitivity to compound as the copper concentration was increased [3] |
| --- | --- | --- | --- | --- | --- | --- | --- |
| O=S(=O)([O-])[O-].[Cu+2] [copper, copper sulfate] | 250 μM | 1 mM | – | – | – | – | – |
| tunicamycin | – | – | hypersensitivity | increased sensitivity | increased sensitivity | No increase in sensitivity | No increase in sensitivity |
